# The source made the active and inactive calls. No cut-off for these calls is given here.
# Key:
# Format in all cases: functional, organism-based
# Human alphaherpesvirus 1 [1] = test: The compound was tested for plaque inhibition in HSV-1 in cell culture; - = in active at 50 ug per disk
# Human alphaherpesvirus 1 [2] = test: The compound was tested for plaque inhibition in HSV-1 in cell culture, activity is determined by plaque reduction assay
# Human alphaherpesvirus 1 [3] = test: The compound was tested for plaque inhibition in HSV-1 in cell culture; +=active at 50 ug per disk
IC50 (Human alphaherpesvirus 1 [2]) [µM],SMILES,Plaque inhibition result (Human alphaherpesvirus 1 [1]),Plaque inhibition result (Human alphaherpesvirus 1 [3])
–,NCCOCn1cnc2c(N)nc(N)nc21,inactive,–
0.1,Nc1nc2c(ncn2COCCO)c(=O)[nH]1 [ACYCLOVIR],–,active at 50 ug per disk
–,NCCOCCOCn1cnc2c(O)nc(N)nc21,inactive,–
–,Nc1nc(O)c2ncn(COCCNCCO)c2n1,inactive,–
8,NCCOCn1cnc2c(O)nc(N)nc21,–,active at 50 ug per disk
–,CC(=O)NCCOCn1cnc2c(O)nc(N)nc21,inactive,–
